Here are results for 22 molecules from patent US12441730B2, “PRMT5 inhibitors” (Merck Sharp & Dohme LLC, priority 2019, dated 2025).

As a reminder, the EC50 is the midpoint of the concentration-response curve.

SMILES strings stand for the structures. Read-outs that look alike come from different tables or passages of the source.

Assay [1] has as its target T1, Full-length (FL)-PRMT5-MEP50 enzyme complex (Homo sapiens, UniProt O14744).
T1 construct: Full-length (FL)-PRMT5-MEP50 enzyme complex (recombinant proteins from baculovirus-transfected Sf21 cells: FL-PRMT5; MW=73837 kDa and FL-MEP50; MW=38614); made in house; host or cells: baculovirus-transfected Sf21 cells
Briefly: PRMT5-MEP50 Enzyme Methylation Assay (Version A). Type of assay: biochemical. In a few lines:
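Compound was pre-incubated with enzyme for 60 min, then reacted 150 min at 37° C. at final 1.0 nM PRMT5-MEP50, 15 μM SAM and 75 nM biotinylated H4R3(Me1) peptide, in 50 mM Bicine pH 8.0 with 1% DMSO. SAMDI mass-spectrometric readout of Me1→Me2 conversion. EC50 from 4- or 7-parameter regression.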

The subject of assay [2] is symmetric dimethylation of arginine (SDMA) of PRMT5 substrates in MCF-7 cells. Briefly: PRMT5 Cell Target Engagement (TE) Assay. The format is cell-based. The note with it: Homo sapiens, MCF7, 72 h, 3 days treatment, SDMA high content imaging. In a few lines: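 Readout is single-cell nuclear symmetric-dimethylarginine immunofluorescence (Alexa488), normalized to DMSO-treated cells. Compounds were applied to MCF-7 cells for 3 days at 37 °C, top concentration 10000 nM in 1:3 steps over ten points; curves fitted with 4-parameter robust fit.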

Where [3] appears, read: second value of 7 parameter biphasic fit, read-out: Enzyme Methylation Assay Version A (EC50 2).
The mark [4] stands for this setting: single EC50 = 4 parameter single site sigmoidal fit, EC50 1 = first value of 7 parameter biphasic fit, read-out: Enzyme Methylation Assay Version A (EC50 or EC50 1).

T1 sequence (O14744 whole entry): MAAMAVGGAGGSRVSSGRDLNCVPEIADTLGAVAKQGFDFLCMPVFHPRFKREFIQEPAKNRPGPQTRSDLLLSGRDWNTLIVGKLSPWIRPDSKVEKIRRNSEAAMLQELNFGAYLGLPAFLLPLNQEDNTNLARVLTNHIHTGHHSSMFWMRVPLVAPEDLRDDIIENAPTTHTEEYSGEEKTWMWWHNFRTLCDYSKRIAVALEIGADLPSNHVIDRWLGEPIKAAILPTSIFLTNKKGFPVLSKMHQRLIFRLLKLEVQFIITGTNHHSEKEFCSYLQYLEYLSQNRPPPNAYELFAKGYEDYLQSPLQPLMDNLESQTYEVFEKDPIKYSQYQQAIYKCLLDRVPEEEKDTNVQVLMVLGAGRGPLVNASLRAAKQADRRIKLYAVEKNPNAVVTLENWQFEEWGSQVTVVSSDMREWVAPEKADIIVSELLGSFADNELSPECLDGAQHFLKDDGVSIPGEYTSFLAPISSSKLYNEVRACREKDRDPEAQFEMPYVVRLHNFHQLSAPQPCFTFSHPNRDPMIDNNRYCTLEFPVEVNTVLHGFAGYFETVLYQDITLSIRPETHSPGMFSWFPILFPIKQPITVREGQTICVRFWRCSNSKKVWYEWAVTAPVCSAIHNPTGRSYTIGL
T1 sequence (Q9BQA1 whole entry partner): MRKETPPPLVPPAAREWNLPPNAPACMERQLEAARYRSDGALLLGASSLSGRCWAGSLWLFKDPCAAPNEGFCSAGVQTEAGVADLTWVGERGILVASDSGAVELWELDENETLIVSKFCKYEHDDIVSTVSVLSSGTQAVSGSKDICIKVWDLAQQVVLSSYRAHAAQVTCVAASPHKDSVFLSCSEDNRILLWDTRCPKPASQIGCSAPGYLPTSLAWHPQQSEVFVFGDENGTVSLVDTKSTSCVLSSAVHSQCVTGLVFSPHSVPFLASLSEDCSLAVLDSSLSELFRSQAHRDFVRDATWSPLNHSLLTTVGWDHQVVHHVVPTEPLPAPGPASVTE

For `O=C(c1cn2ncnc2cn1)N1CC[C@]2(Cc3ccccc3CN2)[C@H](O)C1` [Example 194, [(3R,3′R)-3′-hydroxy-1,4-dihydro-1′H,2H-spiro[isoquinoline-3,4′-piperidin]-1′-yl]([1,2,d]triazolo[1,5-a]pyrazin-6-yl)methanone], the EC50 in assay [1] (setting [3]) was not below 100000 nM; in assay [1] (setting [4]) it was 479 nM; in assay [2], not below 10000 nM.

Take `O=C(c1cnc2ncnn2c1)N1CC[C@]2(Cc3ccccc3CN2)[C@H](O)C1` [Example 195, [(3R,3′R)-3′-hydroxy-1,4-dihydro-1′H,2H-spiro[isoquinoline-3,4′-piperidin]-1′-yl]([1,2,d]triazolo[1,5-a]pyrimidin-6-yl)methanone]: the figures for the EC50 in assay [1] (setting [4]) and in assay [2] were 15700 nM and not below 10000 nM, respectively.

Regarding `Cc1ccc(C(=O)N2CC[C@]3(Cc4ccccc4CN3)[C@H](O)C2)c(OCCO)n1` [Example 196, [(3R,3′R)-3′-hydroxy-1,4-dihydro-1′H,2H-spiro[isoquinoline-3,4′-piperidin]-1′-yl][2-(2-hydroxyethoxy)-6-methyl-3-pyridinyl]methanone], the half-maximal effective concentration (EC50) stood at 6310 nM in assay [1] (setting [3]), 15.3 nM in assay [1] (setting [4]) and 409 nM in assay [2].

Turning to `Cc1ccc(C(=O)N2CC[C@]3(Cc4ccccc4CN3)[C@H](O)C2)c(Br)n1` [Example 197, (2-bromo-6-methyl-3-pyridinyl)[(3R,3′R)-3′-hydroxy-1,4-dihydro-1′H,2H-spiro[isoquinoline-3,4′-piperidin]-1′-yl]methanone], the concentration for a half-maximal effect (EC50) worked out at 16000 nM in assay [1] (setting [3]), 14.2 nM in assay [1] (setting [4]) and 1310 nM in assay [2].

For the molecule `CNc1nc(C)ccc1C(=O)N1CC[C@]2(Cc3ccccc3CN2)[C@H](O)C1` [Example 198, [(3R,3′R)-3′-hydroxy-1,4-dihydro-1′H,2H-spiro[isoquinoline-3,4′-piperidin]-1′-yl][6-methyl-2-(methylamino)-3-pyridinyl]methanone], the EC50 in assay [1] (setting [3]) came to 16000 nM; in assay [1] (setting [4]), 19.3 nM; in assay [2], 1070 nM.

Turning to `Cc1ccc(C(=O)N2CC[C@]3(Cc4ccccc4CN3)[C@H](O)C2)c(C2CC2)n1` [Example 199, (2-cyclopropyl-6-methyl-3-pyridinyl)[(3R,3′R)-3′-hydroxy-1,4-dihydro-1′H,2H-spiro[isoquinoline-3,4′-piperidin]-1′-yl]methanone], the results for the EC50 in assay [1] (setting [3]), in assay [1] (setting [4]) and in assay [2] were 7240 nM, 4.08 nM and 503 nM, respectively.

In the case of `CCOc1nc(C)ccc1C(=O)N1CC[C@]2(Cc3ccccc3CN2)[C@H](O)C1` [Example 200, (2-ethoxy-6-methyl-3-pyridinyl)[(3R,3′R)-3′-hydroxy-1,4-dihydro-1′H,2H-spiro[isoquinoline-3,4′-piperidin]-1′-yl]methanone], the EC50 in assay [1] (setting [3]) stood at 3020 nM; in assay [1] (setting [4]), 6.73 nM; in assay [2] it was 214 nM.

Consider `CCCOc1nc(C)ccc1C(=O)N1CC[C@]2(Cc3ccccc3CN2)[C@H](O)C1` [Example 201, [(3R,3′R)-3′-hydroxy-1,4-dihydro-1′H,2H-spiro[isoquinoline-3,4′-piperidin]-1′-yl](6-methyl-2-propoxy-3-pyridinyl)methanone], for which the EC50 was found to be 1020 nM in assay [1] (setting [3]), 1.36 nM in assay [1] (setting [4]) and 168 nM in assay [2].

With `O=C(c1cn2cccc(F)c2n1)N1CC[C@]2(Cc3ccccc3CN2)[C@H](O)C1` [Example 202, (8-fluoroimidazo[1,2-a]pyridin-2-yl)[(3R,3′R)-3′-hydroxy-1,4-dihydro-1′H,2H-spiro[isoquinoline-3,4′-piperidin]-1′-yl]methanone], the concentration for a half-maximal effect (EC50) was determined as 16200 nM in assay [1] (setting [3]), 26.3 nM in assay [1] (setting [4]) and 795 nM in assay [2].

On to `Cc1cc(I)c2nc(C(=O)N3CC[C@]4(Cc5ccccc5CN4)[C@H](O)C3)cn2c1` [Example 203, [(3R,3′R)-3′-hydroxy-1,4-dihydro-1′H,2H-spiro[isoquinoline-3,4′-piperidin]-1′-yl](8-iodo-6-methylimidazo[1,2-a]pyridin-2-yl)methanone], for which the EC50 was determined as 292 nM in assay [1] (setting [3]), 0.846 nM in assay [1] (setting [4]) and 25.7 nM in assay [2].

As to `Cc1ccc(C(=O)N2CC[C@]3(Cc4ccccc4CN3)[C@H](O)C2)c(Cl)n1` [Example 204, (2-chloro-6-methyl-3-pyridinyl)[(3R,3′R)-3′-hydroxy-1,4-dihydro-1′H,2H-spiro[isoquinoline-3,4′-piperidin]-1′-yl]methanone], the EC50 was determined as 14600 nM in assay [1] (setting [3]), 21.9 nM in assay [1] (setting [4]) and 1590 nM in assay [2].

As to `COc1nc(C)ccc1C(=O)N1CC[C@]2(Cc3ccccc3CN2)[C@H](O)C1` [Example 205, [(3R,3′R)-3′-hydroxy-1,4-dihydro-1′H,2H-spiro[isoquinoline-3,4′-piperidin]-1′-yl](2-methoxy-6-methyl-3-pyridinyl)methanone], the results for the EC50 in assay [1] (setting [3]), in assay [1] (setting [4]) and in assay [2] were 2750 nM, 2.8 nM and 324 nM, respectively.

As to `O=C(c1cn2cccc(Cl)c2n1)N1CC[C@]2(Cc3ccccc3CN2)[C@H](O)C1` [Example 206, (8-chloroimidazo[1,2-a]pyridin-2-yl)[(3R,3′R)-3′-hydroxy-1,4-dihydro-1′H,2H-spiro[isoquinoline-3,4′-piperidin]-1′-yl]methanone], the figures for the EC50 in assay [1] (setting [3]), in assay [1] (setting [4]) and in assay [2] were 7240 nM, 4.33 nM and 363 nM, respectively.

Regarding `Cc1cc(Cl)c2nc(C(=O)N3CC[C@]4(Cc5ccccc5CN4)[C@H](O)C3)cn2c1` [Example 207, (8-chloro-6-methylimidazo[1,2-a]pyridin-2-yl)[(3R,3′R)-3′-hydroxy-1,4-dihydro-1′H,2H-spiro[isoquinoline-3,4′-piperidin]-1′-yl]methanone], the concentration giving a half-maximal response (EC50) in assay [1] (setting [3]) is 288 nM; in assay [1] (setting [4]), 0.382 nM; in assay [2] it was 27.6 nM.

Regarding `O=C(c1cn2cc(F)cc(Br)c2n1)N1CC[C@]2(Cc3ccccc3CN2)[C@H](O)C1` [Example 208, (8-bromo-6-fluoroimidazo[1,2-a]pyridin-2-yl)[(3R,3′R)-3′-hydroxy-1,4-dihydro-1′H,2H-spiro[isoquinoline-3,4′-piperidin]-1′-yl]methanone], the concentration giving a half-maximal response (EC50) worked out at 692 nM in assay [1] (setting [3]), 0.763 nM in assay [1] (setting [4]) and 100 nM in assay [2].

In the case of `O=C(c1cn2cccc(Br)c2n1)N1CC[C@]2(Cc3ccccc3CN2)[C@H](O)C1` [Example 209, (8-bromoimidazo[1,2-a]pyridin-2-yl)[(3R,3′R)-3′-hydroxy-1,4-dihydro-1′H,2H-spiro[isoquinoline-3,4′-piperidin]-1′-yl]methanone], the EC50 in assay [1] (setting [3]) stood at 3890 nM; in assay [1] (setting [4]), 3.74 nM; in assay [2], 256 nM.

`O=C(c1cn2cc(Cl)cc(Br)c2n1)N1CC[C@]2(Cc3ccccc3CN2)[C@H](O)C1` [Example 210, (8-bromo-6-chloroimidazo[1,2-a]pyridin-2-yl)[(3R,3′R)-3′-hydroxy-1,4-dihydro-1′H,2H-spiro[isoquinoline-3,4′-piperidin]-1′-yl]methanone]: the concentration for a half-maximal effect (EC50) amounted to 55 nM in assay [1] (setting [3]), 0.207 nM in assay [1] (setting [4]) and 12.4 nM in assay [2].

For the molecule `O=C(c1cn2cc(C(F)(F)F)cc(Cl)c2n1)N1CC[C@]2(Cc3ccccc3CN2)[C@H](O)C1` [Example 211, [8-chloro-6-(trifluoromethyl)imidazo[1,2-a]pyridin-2-yl][(3R,3′R)-3′-hydroxy-1,4-dihydro-1′H,2H-spiro[isoquinoline-3,4′-piperidin]-1′-yl]methanone], the EC50 in assay [1] (setting [3]) stood at 71.6 nM; in assay [1] (setting [4]), 0.191 nM; in assay [2] it was 7.99 nM.

`O=C(c1cn(-c2ccc(F)cc2)cn1)N1CC[C@]2(Cc3ccccc3CN2)[C@H](O)C1` [Example 212, [1-(4-fluorophenyl)-1H-imidazol-4-yl][(3R,3′R)-3′-hydroxy-1,4-dihydro-1′H,2H-spiro[isoquinoline-3,4′-piperidin]-1′-yl]methanone]: the concentration for a half-maximal effect (EC50) in assay [1] (setting [3]) worked out at 21400 nM; in assay [1] (setting [4]), 902 nM; in assay [2], 3120 nM.

As for `COc1ccc(C)cc1-n1cnc(C(=O)N2CC[C@]3(Cc4ccccc4CN3)[C@H](O)C2)c1` [Example 213, [(3R,3′R)-3′-hydroxy-1,4-dihydro-1′H,2H-spiro[isoquinoline-3,4′-piperidin]-1′-yl][1-(2-methoxy-5-methylphenyl)-1H-imidazol-4-yl]methanone], the results for the concentration for a half-maximal effect (EC50) in assay [1] (setting [3]), in assay [1] (setting [4]) and in assay [2] were 343 nM, 4.33 nM and 209 nM, respectively.

On to `O=C(c1cn2cc(Cl)cc(Cl)c2n1)N1CC[C@]2(Cc3ccccc3CN2)[C@H](O)C1` [Example 214, (6,8-dichloroimidazo[1,2-a]pyridin-2-yl)[(3R,3′R)-3′-hydroxy-1,4-dihydro-1′H,2H-spiro[isoquinoline-3,4′-piperidin]-1′-yl]methanone], for which the EC50 stood at 47.9 nM in assay [1] (setting [3]), 1.12 nM in assay [1] (setting [4]) and 9 nM in assay [2].

Consider `N#Cc1cc(Cl)c2nc(C(=O)N3CC[C@]4(Cc5ccccc5CN4)[C@H](O)C3)cn2c1` [Example 215, 8-chloro-2-{[(3R,3′R)-3′-hydroxy-1,4-dihydro-1′H,2H-spiro[isoquinoline-3,4′-piperidin]-1′-yl]carbonyl}imidazo[1,2-a]pyridine-6-carbonitrile], for which the EC50 is 56.7 nM in assay [1] (setting [4]) and 122 nM in assay [2].
